# What was measured:
# [1] = test system: Miapaca-2 pancreatic cancer cells; experiment: Western blot of Sp proteins in Miapaca-2 cells; format: cell-based; details: Miapaca-2, 24 hr
# Method: RKO colon cancer cells were treated with BA/CN-BA for 24 hr (FIG. 15A) or 48 hr (FIG. 15B) and Miapaca-2 pancreatic cancer cells were treated with BA/CN-BA for 24 hr (FIG. 15C). Whole cell lysates were examined by Western blot analysis.
# [2] = test system: LNCaP cell xenografts; experiment: LNCaP xenograft in athymic nude mice; format: in vivo
# Method: Male athymic BALB/c nude mice (age 4-6 weeks) were purchased from Harlan (Indianapolis, Ind.). LNCaP cells (1×106) were implanted with matrigel (BD Biosciences, San Jose, Calif.) subcutaneously into the flank of each mouse. Ten days after cell inoculation, animals were divided into three groups of 10 mice each. The first group received 100 μL vehicle (1% DMSO in corn oil) by oral gavage and the second and third groups of animals received 10 and 20 mg/kg/d doses of BA in vehicle every second day for 14 days (7 doses). The mice were weighed, and tumor areas were measured throughout the study. After 22 days, the animals were sacrificed, final body and tumor weights were determined and selected tissues were further examined by routine hematoxylin and eosin staining and immunohistochemical analysis.
# Tissue sections ([…] thick) mounted on poly-Lysine-coated slides were deparaffinized by standard methods. Endogenous peroxidase was blocked by the use of 3% hydrogen peroxide in PBS for 10 min. Antigen retrieval for VEGF and CD31 staining was done for 10 min in 10 mmol/L sodium citrate buffer (pH 6) heated at 95° C. in a steamer followed by cooling for 15 min. […] Hematoxylin and eosin staining was determined as previously described.
Compound,Sp protein expression [1],"changes in organ or body weights or histopathology of liver and other tissues ([2]; 10 and 20 mg/kg/d, data not shown)","mitotic activity in tumors ([2]; treated mice, corn oil group 6-8)"
CC(C)C1CCC2(C(=O)O)CCC3(C)C(CCC4C5(C)C=C(C#N)C(=O)C(C)(C)C5CCC43C)C12 (stereo not drawn) [CN-BA],decrease Sp protein expression,,
"C=C(C)[C@@H]1CC[C@]2(C(=O)O)CC[C@]3(C)[C@H](CC[C@@H]4[C@@]5(C)CC[C@H](O)C(C)(C)[C@@H]5CC[C@]43C)[C@@H]12 [betulinic acid, Betulinic acid]",,no treatment-related changes,1-2 microfigures/hpf

# Reference: patent US20090203661A1, “Betulinic acid, derivatives and analogs thereof and uses therefor” (priority 2006, published 2009)
